Assay results reported in PubChem BioAssay AID651581 (Sanford-Burnham Center for Chemical Genomics, 2012).
Active and inactive are the calls of the source. How the calls were made is not given here.

What was measured:
[1] = target: Hypoxia-inducible factor 1-alpha (Homo sapiens) (UniProt Q16665); assay: HIF-2a and HIF-1a reporter inhibition panel, dose response, selectivity assay for HIF-2a inhibitor project, cell-based, luminescence (AID 651581); conditions: HIF-1a
[2] = target: Endothelial PAS domain-containing protein 1 (Homo sapiens) (UniProt Q99814); assay: as above

Hypoxia-inducible factor 1-alpha (Homo sapiens), sequence (Q16665 whole entry, looked up, the tested form may be a part): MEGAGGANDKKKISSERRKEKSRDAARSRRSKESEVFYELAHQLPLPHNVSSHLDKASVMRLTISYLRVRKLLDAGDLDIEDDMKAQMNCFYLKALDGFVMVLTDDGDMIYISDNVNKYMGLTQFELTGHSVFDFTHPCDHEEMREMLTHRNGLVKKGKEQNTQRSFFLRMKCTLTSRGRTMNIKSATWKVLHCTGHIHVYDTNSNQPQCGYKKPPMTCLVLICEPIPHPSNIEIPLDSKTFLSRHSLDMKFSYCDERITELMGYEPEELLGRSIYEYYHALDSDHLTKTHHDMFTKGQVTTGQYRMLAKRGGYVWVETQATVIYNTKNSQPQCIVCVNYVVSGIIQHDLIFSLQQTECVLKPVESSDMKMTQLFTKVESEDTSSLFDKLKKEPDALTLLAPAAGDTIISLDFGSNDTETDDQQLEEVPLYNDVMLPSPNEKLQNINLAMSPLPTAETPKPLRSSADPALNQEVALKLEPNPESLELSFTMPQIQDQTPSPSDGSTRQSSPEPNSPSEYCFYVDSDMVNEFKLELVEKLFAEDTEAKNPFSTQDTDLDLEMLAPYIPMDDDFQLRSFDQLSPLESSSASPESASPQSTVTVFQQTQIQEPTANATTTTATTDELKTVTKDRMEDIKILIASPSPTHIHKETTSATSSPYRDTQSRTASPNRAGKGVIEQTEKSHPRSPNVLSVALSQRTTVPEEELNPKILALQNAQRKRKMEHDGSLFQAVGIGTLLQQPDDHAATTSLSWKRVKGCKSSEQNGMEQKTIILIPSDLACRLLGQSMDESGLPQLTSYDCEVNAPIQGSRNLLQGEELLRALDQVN

Row | Compound | IC50 ([1]; mean of runs) | IC50 ([1]; run 1) | IC50 ([1]; run 2) | IC50 ([2]; HIF-2a PANC, mean of runs) | IC50 ([2]; HIF-2a PANC, run 1) | IC50 ([2]; HIF-2a PANC, run 2) | IC50 ([2]; HIF-2a, mean of runs) | IC50 ([2]; HIF-2a, run 1) | IC50 ([2]; HIF-2a, run 2)
1 | COc1ccc(/C=N\n2nnc3ccccc32)cc1 | < 30 µM (inactive) | < 30 µM | < 30 µM | 7.03 µM | 7.48 µM | 6.58 µM | < 30 µM (inactive) | < 30 µM | < 30 µM
2 | CCOC(=O)c1c(C)nn(-c2ccc(NC(=O)c3c(C)noc3C)cc2)c1C | inactive | 10.2 µM | 11.8 µM | inactive | 15.3 µM | 13.2 µM | 4.26 µM | 4.25 µM | 4.26 µM
3 | CCN(CC)S(=O)(=O)c1ccc(NC(=O)c2cccnc2Cl)c(NC(=O)c2cccnc2Cl)c1 | inactive | 8.13 µM | 16.9 µM | 9.99 µM | 12.9 µM | 7.07 µM | 10 µM | 9.42 µM | 10.6 µM
4 | CNC(=O)NC(=O)COC(=O)CCCSc1nc2ccccc2s1 | inactive | 6.15 µM | 8.11 µM | 10.7 µM | 15.8 µM | 5.59 µM | 4.96 µM | 5.6 µM | 4.32 µM
5 | Nc1ccc(-c2cc3ccccc3c(=O)o2)cc1 |  | 0.423 µM | > 99 µM | 0.7 µM | 0.782 µM | 0.618 µM | < 1 µM | < 1 µM | < 1 µM
6 | O=C(CCCSc1nc2ccccc2s1)NC1=NCCS1 | inactive | 15 µM | 10.5 µM | 7.38 µM | 7.27 µM | 7.49 µM | 6.38 µM | 7.04 µM | 5.72 µM
7 | N#CCC(=O)N/N=C\c1cccc(OC/C=C/c2ccccc2)c1 |  | > 99 µM | < 30 µM |  | > 99 µM | < 30 µM |  | < 30 µM | 8.63 µM
8 | O=Nc1c(O)ccc2cc(S(=O)(=O)O)ccc12 |  | 3.06 µM | > 99 µM | inactive | 25.5 µM | 51.1 µM | 8.77 µM | 8.62 µM | 8.91 µM
9 | CCN(CC)CCCC(C)n1c2nc(=O)[nH]c(=O)c-2nc2cc(Cl)ccc21 (stereo unspecified) | inactive | 18.1 µM | 15.8 µM | 3.53 µM | 2.56 µM | 4.5 µM | 9.02 µM | 8.43 µM | 9.61 µM
10 | O=Cc1ccc(-c2cccs2)s1 |  | > 99 µM | > 99 µM | > 99 µM (inactive) | > 99 µM | > 99 µM | 5.55 µM | 5.49 µM | 5.62 µM
11 | O=C(O)c1cccc(COc2ccccc2Cl)c1 | 21.2 µM | 17.8 µM | 24.6 µM |  | 21.1 µM | > 99 µM | 2.58 µM | 2.52 µM | 2.65 µM
12 | CCOc1ccc(OCc2cccc(C(=O)N3CCOCC3)c2)cc1 |  | > 99 µM | > 99 µM | > 99 µM (inactive) | > 99 µM | > 99 µM |  | 7.59 µM | < 30 µM
13 | Cc1c(CCC(=O)N2CCC(C(=O)O)(c3ccccc3)CC2)c(=O)oc2cc3oc4c(c3cc12)CCCC4 | 5.97 µM | 7.31 µM | 4.63 µM | 3.13 µM | 3.77 µM | 2.49 µM | 1.41 µM | 1.57 µM | 1.24 µM
14 | CC(=O)Nc1ccc(Oc2sc(C(=O)c3ccccc3)c(N)c2C#N)cc1 | inactive | 27.7 µM | 28.5 µM | inactive | 47.2 µM | 65.4 µM | inactive | 17.5 µM | 10.9 µM
15 | O=c1[nH]c2ccc(Br)cc2c(=O)o1 |  | > 99 µM | 20 µM | 47.5 µM | 36.4 µM | 58.6 µM | inactive | 19.3 µM | 20 µM
16 | O=Cc1cn(Cc2cccc([N+](=O)[O-])c2)c2ccccc12 |  | > 99 µM | > 99 µM | > 99 µM (inactive) | > 99 µM | > 99 µM | 0.978 µM | 0.982 µM | 0.975 µM
17 | Cc1cc(C)cc(C(=O)NC(=S)Nc2ccc(-c3cc4ccccc4oc3=O)cc2)c1 | > 99 µM (inactive) | > 99 µM | > 99 µM |  | > 99 µM | > 99 µM | > 99 µM (inactive) | > 99 µM | > 99 µM
18 | Nc1ccc(-c2ncc(-c3ccccc3)o2)cc1 | 26.7 µM | 52.5 µM | 0.851 µM | 0.247 µM | 0.202 µM | 0.292 µM | < 0.3 µM | < 0.3 µM | < 1 µM

Row | Compound | IC50 ([1]; mean of runs) | IC50 ([1]; run 1) | IC50 ([1]; run 2) | IC50 ([2]; HIF-2a PANC, mean of runs) | IC50 ([2]; HIF-2a PANC, run 1) | IC50 ([2]; HIF-2a PANC, run 2) | IC50 ([2]; HIF-2a, mean of runs) | IC50 ([2]; HIF-2a, run 1) | IC50 ([2]; HIF-2a, run 2)
19 | CC(C)(C)c1ccc(-c2noc(CCC(=O)NCC3CCCO3)n2)cc1 (stereo unspecified) |  | > 99 µM | > 99 µM | < 3 µM | < 3 µM | < 10 µM | < 10 µM | < 10 µM | < 10 µM
20 | CCOC(=O)Cc1csc(NC(=S)NC(=O)c2ccc(F)cc2)n1 | 12.9 µM | 13.5 µM | 12.4 µM |  | > 99 µM | 13.5 µM | 1.96 µM | 1.92 µM | 2.01 µM
21 | Cc1ccc(C(C)C)c(OCc2ccc(C(=O)N/N=C/c3ccc(C(=O)O)cc3)cc2)c1 |  | > 99 µM | > 99 µM | 0.378 µM | 0.507 µM | 0.248 µM | 0.45 µM | 0.421 µM | 0.479 µM
22 | CCc1ccc(S(=O)(=O)ON2C(=O)c3ccccc3C2=O)cc1 |  | 25.1 µM | > 99 µM |  | 53.4 µM | > 99 µM | inactive | 10.6 µM | 9.59 µM
23 | CCOC(=O)Cc1csc(NC(=S)NC(=O)c2ccc([N+](=O)[O-])cc2)n1 | 51 µM | 55.3 µM | 46.8 µM | inactive | 35.8 µM | 34.5 µM | 5.93 µM | 5.83 µM | 6.03 µM
24 | O=C1C=CC(=O)N1c1ccccc1N1C(=O)C=CC1=O | inactive | 40.9 µM | 34.6 µM | > 99 µM (inactive) | > 99 µM | > 99 µM | inactive | 13.4 µM | 13.2 µM
25 | O=C1C=C(c2ccccc2)C(=O)N1Nc1ccccc1 | 82.8 µM | 76 µM | 89.5 µM | > 99 µM (inactive) | > 99 µM | > 99 µM | inactive | 11.2 µM | 10.6 µM
26 | CS(=O)(=O)c1ccc(-c2cn3cc(C(=O)O)ccc3n2)cc1 | > 99 µM (inactive) | > 99 µM | > 99 µM |  | 86.7 µM | > 99 µM | inactive | 28.8 µM | 47.2 µM
27 | NNC(=O)c1cccc(COc2ccc3c(c2)CCC3)c1 |  | > 99 µM | > 99 µM | > 99 µM (inactive) | > 99 µM | > 99 µM | < 30 µM (inactive) | < 30 µM | < 30 µM
28 | COc1cccc(NC(=O)c2nc(S(C)(=O)=O)ncc2Cl)c1 | inactive | 14.7 µM | 28.2 µM | inactive | 32.4 µM | 89.6 µM | inactive | 12.2 µM | 11.3 µM
29 | COc1ccc(-c2cnc3c(NC=O)cc(-c4cccc(NS(C)(=O)=O)c4)cn23)cc1OC | inactive | 30.3 µM | 24.8 µM | 4.5 µM | 3.94 µM | 5.05 µM | inactive | 13 µM | 10.8 µM
30 | CCOC(=O)c1cccc(NC(=O)Nc2ccc(OCC)cc2)c1 |  | > 99 µM | > 99 µM |  | < 30 µM | 32.7 µM |  | 11.2 µM | < 10 µM
31 | Cc1nc2cc(-c3ccccc3)nn2c(C)c1CCC(=O)NCc1ccco1 |  | > 99 µM | > 99 µM | 4.77 µM | 6.92 µM | 2.62 µM | 1.81 µM | 1.52 µM | 2.1 µM
32 | CN(C)c1c([N+](=O)[O-])cc(N2C(=O)C=CC2=O)cc1[N+](=O)[O-] | 52.2 µM | 63.9 µM | 40.5 µM | inactive | 22.2 µM | 41.7 µM | 8.6 µM | 8.29 µM | 8.9 µM
33 | CCOC(=O)c1ccc(Oc2nc(NC(C)(C)C)nc(N(C)C)n2)cc1 | inactive | 21.8 µM | 31.4 µM | inactive | 20.7 µM | 51.9 µM | inactive | 8.84 µM | 11.9 µM
34 | NCCN1C(=O)S/C(=C\c2ccc3c(c2)OCO3)C1=O | 5.89 µM | 6.19 µM | 5.6 µM | inactive | 9.33 µM | 4.41 µM | 1.12 µM | 1.15 µM | 1.09 µM
35 | c1c2c(cc3sc(N4CCOCC4)nc13)OCCO2 | inactive | 11.3 µM | 18 µM | 17.2 µM | 20 µM | 14.4 µM | < 30 µM (inactive) | < 30 µM | < 30 µM
36 | N#C/C(=C\c1ccccc1)C(=O)N(c1ccccn1)C1CCCCC1 | inactive | 25.8 µM | 24.7 µM | inactive | 98.1 µM | 71.2 µM | inactive | 14.9 µM | 13.7 µM
